Calls of active or inactive are those of the source. The rule behind the calls is not given here.
Key:
Bacillus subtilis [1] = experiment: Antimicrobial activity against Bacillus subtilis assessed as inhibition of visible growth after 24 hrs by disc-diffusion method; format: functional, organism-based
Pseudomonas aeruginosa [2] = experiment: Antimicrobial activity against Pseudomonas aeruginosa assessed as inhibition of visible growth after 24 hrs by disc-diffusion method; format: functional, organism-based
Bacillus subtilis [3] = experiment: Antimicrobial activity against Bacillus subtilis assessed as inhibition zone at 200 ug/disk after 24 hrs by disc-diffusion method; format: functional; details: read-out: IZ
Escherichia coli [4] = experiment: Antimicrobial activity against Escherichia coli assessed as inhibition of visible growth after 24 hrs by disc-diffusion method; format: functional, organism-based
Staphylococcus aureus [5] = experiment: Antimicrobial activity against Staphylococcus aureus assessed as inhibition of visible growth after 24 hrs by disc-diffusion method; format: functional, organism-based
Candida albicans [6] = experiment: Antimicrobial activity against Candida albicans assessed as inhibition zone at 200 ug/disk after 24 hrs by disc-diffusion method; format: functional; details: read-out: IZ
Staphylococcus aureus [7] = experiment: Antimicrobial activity against Staphylococcus aureus assessed as inhibition zone at 200 ug/disk after 24 hrs by disc-diffusion method; format: functional; details: read-out: IZ
Escherichia coli [8] = experiment: Antimicrobial activity against Escherichia coli assessed as inhibition zone at 200 ug/disk after 24 hrs by disc-diffusion method; format: functional; details: read-out: IZ
Candida albicans [9] = experiment: Antimicrobial activity against Candida albicans assessed as inhibition of visible growth after 24 hrs by disc-diffusion method; format: functional, organism-based
Pseudomonas aeruginosa [10] = experiment: Antimicrobial activity against Pseudomonas aeruginosa assessed as inhibition zone at 200 ug/disk after 24 hrs by disc-diffusion method; format: functional; details: read-out: IZ
[11] = Growth inhibition of human Hs 578T cells at 10 uM after 48 hrs; format: functional; details: read-out: GI
NCI-H226 = experiment: Growth inhibition of human NCI-H226 cells at 10 uM after 48 hrs; format: functional; details: NCI-H226, 48 h, read-out: GI
[12] = Growth inhibition of human MOLT4 cells at 10 uM after 48 hrs; format: functional; details: MOLT-4, 48 h, read-out: GI
Dihydrofolate reductase = biological target: T1, Dihydrofolate reductase (Bos taurus, UniProt P00376); experiment: Inhibition of bovine liver DHFR
T1 sequence (P00376 whole entry): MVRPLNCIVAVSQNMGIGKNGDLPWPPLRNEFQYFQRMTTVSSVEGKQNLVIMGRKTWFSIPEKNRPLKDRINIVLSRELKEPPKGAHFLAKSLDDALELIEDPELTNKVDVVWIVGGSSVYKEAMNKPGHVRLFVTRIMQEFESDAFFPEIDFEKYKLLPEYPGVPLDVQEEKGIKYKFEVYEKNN

[13] = Growth inhibition of human RXF393 cells at 10 uM after 48 hrs; format: functional; details: RXF 393, 48 h, read-out: GI
CAKI-1 = experiment: Growth inhibition of human CAKI-1 cells at 10 uM after 48 hrs; format: functional; details: CAKI-1, 48 h, read-out: GI
[14] = Growth inhibition of human LOXIMVI cells at 10 uM after 48 hrs; format: functional; details: LOX IMVI, read-out: GI
[15] = Growth inhibition of human HCT15 cells at 10 uM after 48 hrs; format: functional; details: HCT-15, 48 h, read-out: GI
KM12 = experiment: Growth inhibition of human KM12 cells at 10 uM after 48 hrs; format: functional; details: KM12, 48 h, read-out: GI
SW-620 = experiment: Growth inhibition of human SW620 cells at 10 uM after 48 hrs; format: functional; details: SW-620, 48 h, read-out: GI
T47D = experiment: Growth inhibition of human T47D cells at 10 uM after 48 hrs; format: functional; details: read-out: GI
[16] = Growth inhibition of human OVCAR5 cells at 10 uM after 48 hrs; format: functional; details: OVCAR-5, 48 h, read-out: GI
A498 = experiment: Growth inhibition of human A498 cells at 10 uM after 48 hrs; format: functional; details: A498, 48 h, read-out: GI
TK-10 = experiment: Growth inhibition of human TK10 cells at 10 uM after 48 hrs; format: functional; details: TK-10, 48 h, read-out: GI
NCI-H23 = experiment: Growth inhibition of human NCI-H23 cells at 10 uM after 48 hrs; format: functional; details: NCI-H23, 48 h, read-out: GI
ACHN = experiment: Growth inhibition of human ACHN cells at 10 uM after 48 hrs; format: functional; details: read-out: GI
786-0 = experiment: Growth inhibition of human 786-0 cells at 10 uM after 48 hrs; format: functional; details: 786-0, 48 h, read-out: GI
U-251 = experiment: Growth inhibition of human U251 cells at 10 uM after 48 hrs; format: functional; details: U-251, 48 h, read-out: GI
SK-MEL-5 = experiment: Growth inhibition of human SK-MEL-5 cells at 10 uM after 48 hrs; format: functional; details: SK-MEL-5, 48 h, read-out: GI
NCI-H522 = experiment: Growth inhibition of human NCI-H522 cells at 10 uM after 48 hrs; format: functional; details: NCI-H522, 48 h, read-out: GI
MDA-MB-435 = experiment: Growth inhibition of human MDA-MB-435 cells at 10 uM after 48 hrs; format: functional; details: MDA-MB-435, 48 h, read-out: GI
[17] = Growth inhibition of human NCI-ADR-RES cells at 10 uM after 48 hrs; format: functional; details: read-out: GI
HT-29 = experiment: Growth inhibition of human HT-29 cells at 10 uM after 48 hrs; format: functional; details: HT-29, 48 h, read-out: GI
HL-60(TB) = experiment: Growth inhibition of human HL-60(TB) cells at 10 uM after 48 hrs; format: functional; details: HL-60, 48 h, read-out: GI
[18] = Growth inhibition of human OVCAR4 cells at 10 uM after 48 hrs; format: functional; details: OVCAR-4, 48 h, read-out: GI
SN12C = experiment: Growth inhibition of human SN12C cells at 10 uM after 48 hrs; format: functional; details: read-out: GI
MDA-MB-231 = experiment: Growth inhibition of human MDA-MB-231 cells at 10 uM after 48 hrs; format: functional; details: MDA-MB-231, 48 h, read-out: GI
[19] = Growth inhibition of human HCC2998 cells at 10 uM after 48 hrs; format: functional; details: HCC 2998, 48 h, read-out: GI
K562 = experiment: Growth inhibition of human K562 cells at 10 uM after 48 hrs; format: functional; details: K562, 48 h, read-out: GI
[20] = Growth inhibition of human HOP92 cells at 10 uM after 48 hrs; format: functional; details: HOP-92, 48 h, read-out: GI
[21] = Growth inhibition of human OVCAR8 cells at 10 uM after 48 hrs; format: functional; details: OVCAR-8, 48 h, read-out: GI
A549 = experiment: Growth inhibition of human A549 cells at 10 uM after 48 hrs; format: functional; details: A549, 48 h, read-out: GI
CCRF-CEM = experiment: Growth inhibition of human CCRF-CEM cells at 10 uM after 48 hrs; format: functional; details: read-out: GI
SNB-19 = experiment: Growth inhibition of human SNB19 cells at 10 uM after 48 hrs; format: functional; details: SNB-19, 48 h, read-out: GI
[22] = Growth inhibition of human HCT116 cells at 10 uM after 48 hrs; format: functional; details: HCT-116, 48 h, read-out: GI
[23] = Growth inhibition of human UACC62 cells at 10 uM after 48 hrs; format: functional; details: UACC-62, 48 h, read-out: GI
MCF7 = experiment: Growth inhibition of human MCF7 cells at 10 uM after 48 hrs; format: functional; details: MCF7, 48 h, read-out: GI
[24] = Growth inhibition of human RPMI8226 cells at 10 uM after 48 hrs; format: functional; details: RPMI-8226, 48 h, read-out: GI
[25] = Growth inhibition of human PC3 cells at 10 uM after 48 hrs; format: functional; details: PC-3, 48 h, read-out: GI
[26] = Growth inhibition of human UACC257 cells at 10 uM after 48 hrs; format: functional; details: UACC-257, 48 h, read-out: GI
M14 = experiment: Growth inhibition of human M14 cells at 10 uM after 48 hrs; format: functional; details: M14, 48 h, read-out: GI
[27] = Growth inhibition of human BT549 cells at 10 uM after 48 hrs; format: functional; details: BT-549, 48 h, read-out: GI
MDA-MB-468 = experiment: Growth inhibition of human MDA-MB-468 cells at 10 uM after 48 hrs; format: functional; details: MDA-MB-468, 48 h, read-out: GI
[28] = Growth inhibition of human UO31 cells at 10 uM after 48 hrs; format: functional; details: UO-31, 48 h, read-out: GI
NCI-H460 = experiment: Growth inhibition of human NCI-H460 cells at 10 uM after 48 hrs; format: functional; details: NCI-H460, 48 h, read-out: GI
[29] = Growth inhibition of human SF295 cells at 10 uM after 48 hrs; format: functional; details: SF-295, 48 h, read-out: GI

CC(=O)NS(=O)(=O)c1ccc(N)cc1 [SULFACETAMIDE]
Activity (Bacillus subtilis [1]): Active
Activity (Pseudomonas aeruginosa [2]): Active
zone of inhibition at 200 µg/disc (Bacillus subtilis [3]): 22 mm
Activity (Escherichia coli [4]): Active
Activity (Staphylococcus aureus [5]): Active
zone of inhibition at 200 µg/disc (Candida albicans [6]): 25 mm
zone of inhibition at 200 µg/disc (Staphylococcus aureus [7]): 20 mm
zone of inhibition at 200 µg/disc (Escherichia coli [8]): 18 mm
Activity (Candida albicans [9]): Active
zone of inhibition at 200 µg/disc (Pseudomonas aeruginosa [10]): 28 mm

Cc1nc(N)sc1Sc1nc2ccc(Cl)cc2c(=O)n1-c1ccc(Oc2ccccc2)cc1
inhibition of growth at 10 µM [11]: 18.1%
inhibition of growth at 10 µM (NCI-H226): 13.6%
inhibition of growth at 10 µM [12]: 55.7%
IC50 (Dihydrofolate reductase): 1 µM
inhibition of growth at 10 µM [13]: 13.4%
inhibition of growth at 10 µM (CAKI-1): 26.5%
inhibition of growth at 10 µM [14]: 24.5%
inhibition of growth at 10 µM [15]: 44.6%
inhibition of growth at 10 µM (KM12): 20.2%
inhibition of growth at 10 µM (SW-620): 33.9%
inhibition of growth at 10 µM (T47D): 24.5%
inhibition of growth at 10 µM [16]: 12.1%
zone of inhibition at 200 µg/disc (Bacillus subtilis [3]): 8 mm
inhibition of growth at 10 µM (A498): 60.2%
inhibition of growth at 10 µM (TK-10): 11.1%
inhibition of growth at 10 µM (NCI-H23): 26%
inhibition of growth at 10 µM (ACHN): 21.5%
inhibition of growth at 10 µM (786-0): 31.5%
inhibition of growth at 10 µM (U-251): 22.8%
inhibition of growth at 10 µM (SK-MEL-5): 23.9%
inhibition of growth at 10 µM (NCI-H522): 14.7%
inhibition of growth at 10 µM (MDA-MB-435): 11.9%
inhibition of growth at 10 µM [17]: 30.1%
inhibition of growth at 10 µM (HT-29): 44.1%
inhibition of growth at 10 µM (HL-60(TB)): 40.6%
inhibition of growth at 10 µM [18]: 59.1%
inhibition of growth at 10 µM (SN12C): 26.1%
inhibition of growth at 10 µM (MDA-MB-231): 10.7%
inhibition of growth at 10 µM [19]: 26%
inhibition of growth at 10 µM (K562): 25.7%
inhibition of growth at 10 µM [20]: 25.6%
inhibition of growth at 10 µM [21]: 24.9%
inhibition of growth at 10 µM (A549): 29.8%
zone of inhibition at 200 µg/disc (Candida albicans [6]): 8 mm
inhibition of growth at 10 µM (CCRF-CEM): 58.5%
inhibition of growth at 10 µM (SNB-19): 30.7%
zone of inhibition at 200 µg/disc (Staphylococcus aureus [7]): 8 mm
inhibition of growth at 10 µM [22]: 66.7%
inhibition of growth at 10 µM [23]: 36.1%
zone of inhibition at 200 µg/disc (Escherichia coli [8]): 8 mm
inhibition of growth at 10 µM (MCF7): 12.6%
inhibition of growth at 10 µM [24]: 32%
inhibition of growth at 10 µM [25]: 51.1%
inhibition of growth at 10 µM [26]: 24.3%
inhibition of growth at 10 µM (M14): 23.4%
inhibition of growth at 10 µM [27]: 36.8%
inhibition of growth at 10 µM (MDA-MB-468): 23.4%
inhibition of growth at 10 µM [28]: 38.3%
inhibition of growth at 10 µM (NCI-H460): 18%
inhibition of growth at 10 µM [29]: 32.2%
zone of inhibition at 200 µg/disc (Pseudomonas aeruginosa [10]): 8 mm
